From US20240360067A1, “DERIVATIVES OF ITACONIC ACID AND THEIR USE AS ANTI-INFLAMMATORY AGENTS” (Sitryx Therapeutics Limited, priority 2021, published 2024) come the findings set out here.

For data set [1], the system named is IL-1β. The data set can be described thus: THP-1 AlphaLISA IL-1β cytokine assay (PMA-differentiated THP-1, LPS then nigericin). It counts as cell-based. The following applies: 30 min pre-incubation, LPS 24 hr, nigericin 1 hour. As for the experimental part:
(§1) Measuring Inhibitory Effects on IL-1β, and IL-6 Cytokine Output from THP-1s
(§2) The cytokine inhibition profiles of compounds of formula (I) were determined in a differentiated THP-1 cell assay. All assays were performed in RPMI-1640 growth medium (Gibco), supplemented with 10% fetal bovine serum (FBS; Gibco), 1% penicillin-streptomycin and 1% sodium pyruvate unless specified otherwise. The IL-1β and IL-6 cytokine inhibition assays were each run in a background of differentiated THP-1 cells as described below. All reagents described were from Sigma-Aldrich unless specified otherwise. Compounds were prepared as 10 mM DMSO stocks.
(§3) THP-1 cells were expanded as a suspension up to 80% confluence in appropriate growth medium. Cells were harvested, suspended, and treated with an appropriate concentration of phorbol 12-myristate 13-acetate (PMA) over a 72 hr period (37° C./5% CO2).
(§4) Following 72 hrs of THP-1 cell incubation, cellular medium was removed and replaced with fresh growth media containing 1% of FBS. Working concentrations of compounds were prepared separately in 10% FBS treated growth medium and pre-incubated with the cells for 30 minutes (37° C./5% CO2). Following the 30 minute compound pre-incubation, THP-1s were treated with an appropriate concentration of LPS and the THP-1s were subsequently incubated for a 24 hr period (37° C./5% CO2). An appropriate final concentration of Nigericin was then dispensed into the THP-1 plates and incubated for 1 hour (37° C./5% CO2) before THP-1 supernatants were harvested and collected in separate polypropylene 96-well holding plates.
(§5) Reagents from each of the IL-1β and IL-6 commercial kits (Perkin Elmer) were prepared and run according to the manufacturer's instructions. Subsequently, fluorescence signal detection in a microplate reader was measured (EnVision® Multilabel Reader, Perkin Elmer).
(§6) Percentage inhibition was calculated per cytokine by normalizing the sample data to the high and low controls used within each plate (+/−LPS respectively).
A general note: In Alpha technology, singlet oxygen from a donor bead excites a nearby acceptor bead.

For data set [2], the system named is IL-6. The experiment in a line: THP-1 AlphaLISA IL-6 cytokine assay (PMA-differentiated THP-1, LPS then nigericin). It counts as cell-based. As to conditions: differentiated THP-1 cells, 30 min pre-incubation, LPS 24 hr, nigericin 1 hour. How it is done: as §1, §2, §3, §4, §5, §6
The nature of data set [3]: Hepatocyte stability assay, human. It counts as in vitro ADME. As to conditions: 10 μM compound, 0.5×10^6 cells/mL, 60 min; for half-life at 10 μM: cryo-preserved hepatocytes, read-out: T½. An excerpt: (§7) Defrosted cryo-preserved hepatocytes (viability >70%) were used to determine the metabolic stability of a compound via calculation of intrinsic clearance (CIint; a measure of the removal of a compound from the liver in the absence of blood flow and cell binding). Clearance data are particularly important for in vitro work as they can be used in combination with in vivo data to predict the half-life and oral bioavailability of a drug.
(§8) The metabolic stability in hepatocytes assay involved a time-dependent reaction using both positive and negative controls. The cells must be pre-incubated at 37° C. then spiked with test compound (and positive control); samples taken at pre-determined time intervals were analysed to monitor the change in concentration of the initial drug compound over 60 minutes. A buffer incubation reaction (with no hepatocytes present) acted as a negative control and two cocktail solutions, containing compounds with known high and low clearance values (verapamil/7-hydroxycoumarin and propranolol/diltiazem), acted as positive controls. • 1. The assay was run with a cell concentration of 0.5×10^6 cells/mL in Leibovitz buffer. • 2. All compounds and controls were run in duplicate. • 3. Compound concentration was 10 μM. • 4. All compounds and controls were incubated with both cells and buffer to show turnover is due to hepatic metabolism. • 5. All wells on the incubation plate had 326.7 μL of either cells or buffer added. • 6. Prior to assay, cell and buffer-only incubation plates were preincubated for 10 mins at 37° C. • 7. The assay was initiated by adding compounds, 3.3 μL of 1 mM in 10% DMSO-90% Buffer; final DMSO concentration is 0.1%. • 8. Samples were taken at regular timepoints (0, 5, 10, 20, 40, 60 min) until 60 mins. • 9. Sample volume was 40 μL and added to 160 μL of crash solvent (acetonitrile with internal standard) and stored on ice. • 10. At the end of the assay, the crash plates were centrifuged at 3500 rpm for 20 mins at 4° C. • 11. 80 μL of clear supernatant was removed and mixed with 80 μL of deionised water before being analysed by LC-MS/MS.
(§9) Raw LC-MS/MS data were exported to, and analysed in, Microsoft Excel for determination of intrinsic clearance. The percentage remaining of a compound was monitored using the peak area of the initial concentration as 100%. Intrinsic clearance and half-life values were calculated using a graph of the natural log of percentage remaining versus the time of reaction in minutes.

The nature of data set [4]: Hepatocyte stability assay, mouse. It counts as in vitro ADME. As to conditions: 10 μM compound, 0.5×10^6 cells/mL, 60 min; for half-life at 10 μM: cryo-preserved hepatocytes, read-out: T½.
Source text: as §7, §8, §9

Data set [5] has as its system NRF2. The experiment in a line: NRF2 activation assay (DiscoverX PathHunter NRF2 translocation kit, U2OS cells). As to conditions: −GSH. It counts as cell-based.
[6] abbreviates: Homo sapiens, THP-1, differentiated THP-1 cells.

As usually defined, the IC50 is the concentration needed to halve the response being measured. Broadly, the EC50 is the concentration at which the effect is half-maximal. High values mean weaker potency, low ones greater potency.

The structures appear in SMILES notation. Some results are limits rather than exact numbers.

Regarding `C=C(CC(=O)O)C(=O)OC1CCCc2cc(C(F)(F)F)ccc21` (single isomer, unassigned) [Example 7, 3-(((6-(trifluoromethyl)-1,2,3,4-tetrahydronaphthalen-1-yl)oxy)carbonyl)but-3-enoic acid], the IC50 in data set [1] (setting [6]) is 7.9 µM; in data set [2] (Homo sapiens) it was 65.6 µM. Also, the CIint was found to be 8 μL min^−1 10^−6 cells in data set [3] (Human hepatocytes) and 11 μL min^−1 10^−6 cells in data set [4] (Mouse hepatocytes). Besides, the half-life at 10 μM in data set [3] was 3.65 h; in data set [4] it was 1.97 h.

With `C=C(CC(=O)O)C(=O)OC` [1-monomethyl itaconate, reference compound], the IC50 in data set [1] (differentiated THP-1 cells) and in data set [2] was greater than 100 µM in each case. Further, the EC50 in data set [5] (U2OS PathHunter cells, 6 hours) worked out at 30.1 µM. Moreover, the “NRF2 activation Emax, −GSH” value in data set [5] (normalised to dimethyl fumarate high control) is given as 44%.

Turning to `C=C(CC(=O)OCCCCCCCC)C(=O)O` [4-octyl itaconate, reference compound], the CIint in data set [3] (Human hepatocytes) is given as 401 μL min^−1 10^−6 cells; in data set [4] (Mouse hepatocytes), 351 μL min^−1 10^−6 cells. For the same compound, the T½ in data set [3] (Human hepatocytes) and in data set [4] (Mouse hepatocytes) was 4 min in each case.

On to `C=C(CC(=O)O)C(=O)O[C@@H](C)c1ccc(C(F)(F)F)cc1` [Example 1, (S)-3-((1-(4-(trifluoromethyl)phenyl)ethoxy)carbonyl)but-3-enoic acid], for which the IC50 in data set [1] (setting [6]) turned out to be 5.4 µM; in data set [2] (Homo sapiens), 54.8 µM. In addition, the CIint in data set [3] (Human hepatocytes) and in data set [4] (Mouse hepatocytes) was less than 3 μL min^−1 10^−6 cells throughout. The half-life at 10 μM in data set [3] and in data set [4] was greater than 7.67 h throughout.

As to `C=C(CC(=O)O)C(=O)OC1(c2ccc(C(F)(F)F)c(F)c2)CCC1` [Example 3, 3-((1-(3-fluoro-4-(trifluoromethyl)phenyl)cyclobutoxy)carbonyl)but-3-enoic acid], the results for the IC50 in data set [1] (setting [6]) and in data set [2] (Homo sapiens) were 4.8 µM and 53.7 µM, respectively. The CIint in data set [3] (Human hepatocytes) and in data set [4] (Mouse hepatocytes) was less than 3 μL min^−1 10^−6 cells throughout. Moreover, the half-life at 10 μM in data set [3] and in data set [4] was greater than 7.67 h throughout.

In the case of `C=C(CC(=O)O)C(=O)OC1(c2ccc(C(F)(F)F)cc2)COC1` [Example 4, 3-(((3-(4-(trifluoromethyl)phenyl)oxetan-3-yl)oxy)carbonyl)but-3-enoic acid], the results for the IC50 in data set [1] (setting [6]) and in data set [2] (Homo sapiens) were 9.2 µM and greater than 100 µM, respectively. For the same compound, the CIint in data set [3] (Human hepatocytes) stood at 6 μL min^−1 10^−6 cells; in data set [4] (Mouse hepatocytes) it was 8 μL min^−1 10^−6 cells. Besides, the figures for the half-life at 10 μM in data set [3] and in data set [4] were 5.23 h and 3.65 h, respectively.

Consider `C=C(CC(=O)O)C(=O)OC1(c2ccc(C(F)(F)F)cn2)CCC1` [Example 5, 3-((1-(5-(trifluoromethyl)pyridin-2-yl)cyclobutoxy)carbonyl)but-3-enoic acid], for which the IC50 was 9 µM in data set [1] (setting [6]) and greater than 31.6 µM in data set [2] (Homo sapiens). Further, the CIint in data set [3] (Human hepatocytes) and in data set [4] (Mouse hepatocytes) was less than 3 μL min^−1 10^−6 cells throughout. For the same compound, the half-life at 10 μM in data set [3] and in data set [4] was greater than 7.67 h each time.

With `C=C(CC(=O)O)C(=O)OC1(c2ccc(C(F)(F)F)s2)CCC1` [Example 6, 3-((1-(5-(trifluoromethyl)thiophen-2-yl)cyclobutoxy)carbonyl)but-3-enoic acid], the results for the IC50 in data set [1] (setting [6]) and in data set [2] (Homo sapiens) were 9.5 µM and greater than 100 µM, respectively. For the same compound, the CIint in data set [3] (Human hepatocytes) was 13 μL min^−1 10^−6 cells; in data set [4] (Mouse hepatocytes), less than 3 μL min^−1 10^−6 cells. Besides, the results for the half-life at 10 μM in data set [3] and in data set [4] were 2.38 h and greater than 7.67 h, respectively.

In the case of `C=C(CC(=O)NC)C(=O)OC1(c2ccc(C(F)(F)F)cc2)CCC1` [Example 9, 1-(4-(trifluoromethyl)phenyl)cyclobutyl 4-(methylamino)-2-methylene-4-oxobutanoate], the IC50 in data set [1] (setting [6]) came out at 12.6 µM; in data set [2] (Homo sapiens), 11.1 µM. In addition, the CIint in data set [3] (Human hepatocytes) is listed as 27 μL min^−1 10^−6 cells; in data set [4] (Mouse hepatocytes), 449 μL min^−1 10^−6 cells. Moreover, the half-life at 10 μM in data set [3] amounted to 0.733 h; in data set [4], 0.05 h.

Consider `C=C(CC(=O)N(C)C)C(=O)OC1(c2ccc(C(F)(F)F)cc2)CCC1` [Example 10, 1-(4-(trifluoromethyl)phenyl)cyclobutyl 4-(dimethylamino)-2-methylene-4-oxobutanoate], for which the IC50 in data set [1] (setting [6]) stood at 60 µM; in data set [2] (Homo sapiens), 13.8 µM. The results for the CIint in data set [3] (Human hepatocytes) and in data set [4] (Mouse hepatocytes) were 98 μL min^−1 10^−6 cells and greater than 460 μL min^−1 10^−6 cells, respectively. Further, the half-life at 10 μM in data set [3] was 0.2 h; in data set [4], less than 0.05 h.

Consider `C=C(CC(=O)NCCN(C)C)C(=O)OC1(c2ccc(C(F)(F)F)cc2)CCC1` [Example 12, 1-(4-(trifluoromethyl)phenyl)cyclobutyl 4-((2-(dimethylamino)ethyl)amino)-2-methylene-4-oxobutanoate], for which the IC50 in data set [1] (setting [6]) amounted to 3.1 µM; in data set [2] (Homo sapiens) it was 4 µM. The results for the CIint in data set [3] (Human hepatocytes) and in data set [4] (Mouse hepatocytes) were 59 μL min^−1 10^−6 cells and 138 μL min^−1 10^−6 cells, respectively. Besides, the half-life at 10 μM in data set [3] amounted to 0.417 h; in data set [4], 0.15 h.

For the compound `C=C(CC(=O)NCc1nccn1C)C(=O)OC1(c2ccc(C(F)(F)F)cc2)CCC1` [Example 16, 1-(4-(trifluoromethyl)phenyl)cyclobutyl 4-(((1-methyl-1H-imidazol-2-yl)methyl)amino)-2-methylene-4-oxobutanoate], the IC50 in data set [1] (setting [6]) was found to be 5.9 µM; in data set [2] (Homo sapiens) it was 5.3 µM. In addition, the results for the CIint in data set [3] (Human hepatocytes) and in data set [4] (Mouse hepatocytes) were 114 μL min^−1 10^−6 cells and greater than 460 μL min^−1 10^−6 cells, respectively. In addition, the figures for the half-life at 10 μM in data set [3] and in data set [4] were 0.183 h and less than 0.05 h, respectively.

Regarding `C=C(CC(=O)NC(CO)C(N)=O)C(=O)OC1(c2ccc(C(F)(F)F)cc2)CCC1` (stereo not drawn) [Example 17, 1-(4-(trifluoromethyl)phenyl)cyclobutyl 4-((1-amino-3-hydroxy-1-oxopropan-2-yl)amino)-2-methylene-4-oxobutanoate], the IC50 in data set [1] (setting [6]) is 15.3 µM; in data set [2] (Homo sapiens), 12.4 µM.

Take `C=C(CC(=O)OC)C(=O)OC` [dimethyl itaconate, reference compound]: the IC50 in data set [1] (setting [6]) and in data set [2] (Homo sapiens) was greater than 100 µM throughout.
